# Laboratory results: US9045474B2, “Compounds and compositions for mitigating tissue damage and lethality” (The Regents of the University of California, priority 2010, dated 2015)
# “Also recorded” adds a separate entry of the source.
# Experiments:
# OMM lymphocytes = assay: γH2AX assay, cigarette smoke extract induced double strand breaks; assay type: cell-based, mouse; details: 3 puff/mL cigarette smoke extract, 6 and 24 hrs, Ogg−/− Myh−/− mice
# Procedure: Whole peripheral blood lymphocytes were taken from WT, and OMM double knockout mice (mice deficient in DNA repair pathways observed in smoking-induced lung cancer) and were administered 3 puff/mL of Cigarette smoke extract (CSE) alone or co-incubation of 3 puff/mL Cigarette smoke extract and 10 uM Yel 002 for 3, 6, and 24 hrs and the amount of double stranded breaks were assessed via γH2AX assay. […] Statistical significance was assessed via a 1 way ANOVA test with Tukey's post-hoc analysis. […] Statistical significance was assessed via a 1 way ANOVA test with Tukey's post-hoc analysis. N=3 in each group.
# RS112 cells = assay: DEL plating assay for mitigation of radiation damage (treatment after 2000Gy); assay type: cell-based, Saccharomyces cerevisiae
# Procedure: The mitigation protocol is based on the same DEL assay principle of recombination of the disrupted HIS3 gene that renders the cells capable of synthesizing its own histidine following radiation exposure. To establish mitigation properties of the compounds in question, the classical DEL protocol is modified as follows: first the RS112 cells are irradiated with 2000Gy and then the treatments are administered at 0 min, 10 min, 20 min, 30 min, and 60 min, incubated for 2 hrs, and plated on +13 and −His agar plates. The efficacy of the compounds is scored the same way as in the classical DEL protocol. Yel1 and Yel2 analogues that are efficacious in the HTS and classical DEL assay are analyzed for mitigation activity using this modified DEL protocol.
# Six confirmed hits were also tested for radioprotection with the compounds being presented to irradiated cells at different time points following irradiation exposure. The DEL Plating Assay was used with a radiation sensitive Saccharomyces cerevisiae RS112 strain.
# The general DEL Assay is described above. In this example, DEL assay is a genetic construct in the Saccharomyces cerevisiae RS112 strain where a plasmid with an internal fragment of the HIS3 gene has been integrated at the HIS3 locus, yielding an integrative disruption of the HIS3 gene. […] The construct reverts to HIS3+ by recombination between the two his3 deletion alleles which is, in 99% of the cases, associated with the deletion of the entire 6 kilobasepairs of DNA comprising the integrated plasmid. DEL events are inducible with a variety of DNA-assaulting agents: radiation, smoking, UV exposure, 92% of the known carcinogens, etc.
# RS112 cells irradiated with 2000Gy show an induction of the deletion frequencies (DEL events) and roughly a 90% killing.
# C3H mice = assay: Radioprotection experiments in C3H mice (8Gy, compound before exposure); assay type: in vivo, mouse; details: 8Gy (LD100/30), 75 mg/kg
# Source text: Only the results for Compound 4 are significant at Day 14 post irradiation. Irradiated controls died on Day 13 while most of the treated mice survived to Day 18, and mice in group 4 and 1 have survived to Day 24. The limitation of this study was the number of mice in each group due to the small quantities of the commercially available compounds.
smiles,measurement,setting,value
COc1ccc2cc(-c3nc4ccc(C)cn4c3NCc3ccco3)c(=O)[nH]c2c1 [Yel002],double strand breaks / average γH2AX per cell,OMM lymphocytes,reduces the number of DNA double strand breaks
same,double strand breaks / average γH2AX per cell,OMM lymphocytes; listed as YEL 002,significantly reduces cigarette smoke induced double strand breaks; also recorded: significantly decreases the amount of average γH2AX per cell
same,reduction of DEL events (gene reversion frequency),"RS112 cells; compound added 0-60 min after 2000Gy, p<0.05",decreased DEL frequencies; also recorded: significant reduction of genetic instability
same,mitigation of radiation cytotoxicity (survival),"RS112 cells; compound added at time points after 2000Gy, significant only at 60 min",increased survival fractions; also recorded: mitigation of radiation cytotoxicity has been observed
same,survival versus 8 Gy control group,C3H mice; listed as 5,noticeable difference in survival
same,survival versus 8 Gy control group,C3H mice; listed as Compound 5,increase in survival
